Experimental data: US20210113685A1, “POLYPEPTIDE DRUG AGAINST HEPATITIS B VIRUS PROTEIN” (priority 2011, published 2021)
Where no end group is shown, it is not given here.

Assays:
L-O2-X cells = experiment: MTT assay, L-O2-X cells; assay type: cell-based; settings: synthesized polypeptide 0.1-100 μM, 48 hr
Procedure: (§1) (1) Plate the cells: suspended the cells at exponential phase (the cells in the above Table 1) in RPMI1640 or DMEM medium with 10% FBS, and plated 4000-5000 cells in a 96-well plate with 100 μl per well; Culture the cells: Within 12 hr for adhesion of cultured cells, different amount of polypeptides plasmids from Step A (0.25 μg, 0.5 μg and 0.75 μg) or different concentrations of synthesized polypeptides from Example 1 (0.1 μM, 1 μM, 10 μM and 100 μM) were transfected with 8 wells for each concentration, and were incubated for 48 hr in the same condition. 0.3 μg pEGFP-C2 plasmids and 1 μg p-Anti-HBxP1 # were cotransfected, and using a fluorescence microscope to check for cells containing the GFP plasmid after 24 hr to make sure the percentage of cells that contain GFP is over 70%;
(§2) (2) Coloration: added 20 μl MTT solution (5 mg/ml MTT in PBS buffer (pH7.4)) for each well;
(§3) (3) Incubated for 4 hr, and carefully aspirate off the supernatant from the wells. Added 150 μl DMSO into each well, shaking for 10 min until the crystals dissolved;
(§4) (4) Comparison: Read in an ELISA reader at 490 nm to measure the absorbance for each well. Results were calculated by using Student's t-test.

HepG2-X cells [1] = experiment: MTT assay, HepG2-X cells; assay type: cell-based; settings: synthesized polypeptide 0.1-100 μM, 48 hr
Text: (§5) Two cell lines were adopted in the experiment. One is constitutive expression HBx of hepatoma cell HepG2 (stable transfected hepatoma cell HepG2 expressing HBx), and the other one is constitutive expression Hepatitis B virus complete genome of hepatoma cell HepG2.2.15 (stable transfected hepatoma cell HepG2 expressing HBV complete genome). Because HBx functions to activate the transcription factor NF-κB, it is possible to detect the inhibition of HBx at the molecular level by reporter gene-based assays. […]
as §1, with “70%; […]” for “70%;”
(§6) (4) Comparison: Read in an ELISA reader at 490 nm to measure the absorbance for each well. […]

HepG2.2.15 cells [2] = experiment: Inoculation experiment in nude mice, HepG2.2.15 cells; assay type: in vivo
Procedure: (§7) Suspended the HepG2-X or HepG2.2.15 cells at exponential phase by treating with trypsin, and counted the number of cells to dilute to 1×10^7 cells/ml with physiological saline, and then store in the ice water. 12 Mice used were 4- to 6-week-old BALB/C females, and were randomly divided into two groups: @Control group, injected 0.2 ml diluted cells to the armpit of left forelimb for each mouse, and only injected 0.5 ml ddH2O (without polypeptide drugs); 0 experimental group (the treatment dose was 10 mg/kg), injected 0.2 ml diluted cells to the armpit of left forelimb for each mouse, and within 7 days after the injection, tumor volume (V=L×W^2×0.5) reached to 100 mm^3. And then, injected the above mentioned polypeptide drugs (dried polypeptide drug solved in 0.5 ml ddH2O) once in two day, total 10 times, and recorded the tumor volume before injection. Within 24 hr after the last dose, weighted the mice, and killed the mice to weight the tumor tissue, anti-tumor rate was calculated as follow: […]

[3] = Polypeptide drugs acute toxicity test; assay type: in vivo, Kunming white mice; settings: 1 g/kg tail intravenous injection; observed 24 hr
Procedure: Control group and experimental group contained 10 Kunming white mice, with 5 females and 5 males, respectively. Experimental group injected Anti-HBxP1 # with the concentration of 1 g/kg ([…] dried polypeptide drug solved in 0.124 ml ddH2O) by tail intravenous injection; control group, injected 0.25 ml ddH2O. Consecutively observed the mice for 24 hr after injection.

HepG2 = experiment: MTT assay, HepG2 cells; assay type: cell-based; settings: HepG2 (no HBx); synthesized polypeptide 0.1-100 μM, 48 hr
Procedure: as §1, §2, §3, §4

HepG2.2.15 cells [4] = experiment: MTT assay, HepG2.2.15 cells; assay type: cell-based; settings: synthesized polypeptide 0.1-100 μM, 48 hr
Text: as §5
as §1, with “70%; […]” for “70%;”
as §6

[5] = test system: NF-κB promoter (HBx-activated); experiment: Dual-luciferase reporter gene analysis (pGL3-NF-κB); assay type: cell-based; settings: incubation with synthesized polypeptide 0.1-100 μM, 24 hr
Text: Two cell lines were adopted in the experiment. One is constitutive expression HBx of hepatoma cell HepG2 (stable transfected hepatoma cell HepG2 expressing HBx), and the other one is constitutive expression Hepatitis B virus complete genome of hepatoma cell HepG2.2.15 (stable transfected hepatoma cell HepG2 expressing HBV complete genome). Because HBx functions to activate the transcription factor NF-κB, it is possible to detect the inhibition of HBx at the molecular level by reporter gene-based assays. Due to the role of HBx on promoting the growth and proliferation of hepatoma cells, it can test the effects of the polypeptides on the proliferation of HepG2-X cell and HepG2.2.15 cell by (3-(4,5-dimethylthiazol-2-yl)-2,5-diphenyltetrazolium bromide (MTT).
(1) Plated the cells at exponential phase (the cells in the above Table 1) at a density 0.75×10^5 cells/ml in a 24-well plate with 500 μl per well. Ideally cells should be 90% confluent prior to transfection;
(2) Reporter gene vectors containing promoter (pGL3-NF-κB, 0.3 μg, purchased from Yuanhaoping (Tianjin) Biological Technology Co., Ltd) were transfected into cells by using lipofectamine transfection reagent, and Renilla luciferase expressing vectors (pRL-TK, 0.1 μg, purchased from Promega) were transfected as controls. Simultaneously, different amount of polypeptides plasmids from Step A (0.25 μg, 0.5 μg and 0.75 μg) or different concentrations of synthesized polypeptides from Example 1 (0.1 μM, 1 μM, 10 μM and 100 μM) were added, and repeated each concentration in three wells;
(3) After transfection for 48 hr (or after incubation with artificial synthesized polypeptide Anti-HBxP1 # for 24 hr), washed the cells with PBS for three times;
(4) Added 100 μl 1× Passive Lysis Buffer (PLB) into transfected cells per well, and lysed the cell at room temperature for 15 min. Transferred the cell lysate to a 1.5 ml Eppendorf (EP) tube;
(5) Centrifuged at 12,000 rpm for 30 min, and transferred the supernatant to a fresh EP tube;
(6) Added an aliquot of cell lysate into each EP tube with 100 μl Luciferase Assay Buffer II (LARII), and mixed well;
(7) Immediately put the EP tubes into a Luminometer (manufactured by Turner Biosystems). Within 10 sec after 2 sec balance, measured the luminescence.
(8) Added 100 μl fluorescence bleacher. Firefly luciferase was quenched, while Renilla luciferase started to react.
(9) Measured the luminescence within 10 sec.
The relative activity was the ratio of the value of the first luminescence to the value of the second luminescence.
Results shown are representative of three independent experiments according to Mean±SD, and statistical significance was calculated using Student's t test.

HepG2-X cells [6] = experiment: Inoculation experiment in nude mice, HepG2-X cells; assay type: in vivo
Procedure: as §7

L-O2 = experiment: MTT assay, L-O2 cells; assay type: cell-based; settings: L-O2 (no HBx); synthesized polypeptide 0.1-100 μM, 48 hr
Procedure: as §1, §2, §3, §4

Q: What does the source list for GSAVMFSSKERG [Anti-HBxP1 #]?
A: growth of the hepatoma cells (MTT assay) (L-O2-X cells): inhibits; growth of the hepatoma cells (MTT assay) (HepG2-X cells [1]): inhibits; growth and proliferation of HepG2.2.15 cells in nude mice (HepG2.2.15 cells [2]; 10 mg/kg, P<0.01): inhibits; Anti-tumor rate (%) (HepG2.2.15 cells [2]; HepG2.2.15 tumor, 10 mg/kg once in two day, 10 times): 41.27%; Tumor weight (X ± S, g) (HepG2.2.15 cells [2]; HepG2.2.15 tumor, 10 mg/kg once in two day, 10 times, within 24 hr after last dose): 0.37 ± 0.19 g; Weight (X ± S, g) After dose (HepG2.2.15 cells [2]; mouse body weight after 10 mg/kg once in two day, 10 times, HepG2.2.15 tumor): 21.08 ± 0.81 g; Weight (X ± S, g) Before dose (HepG2.2.15 cells [2]; mouse body weight before dose, HepG2.2.15 tumor, experimental group): 15.17 ± 1.17 g; behaviors of mice (acute toxicity) [3]: do not have abnormal behaviors; changes in weight compared with control group (acute toxicity) [3]: no abnormal changes in weight; growth of the hepatoma cells (MTT assay) (HepG2): no effect; growth of the hepatoma cells (MTT assay) (HepG2.2.15 cells [4]): inhibits; activity of NF-κB promoter ([5]; HepG2 (no HBx)): no effect; activity of NF-κB promoter ([5]; HepG2-X cells): inhibits; activity of NF-κB promoter ([5]; HepG2.2.15 cells): inhibits; activity of NF-κB promoter ([5]; L-O2 (no HBx)): no effect; activity of NF-κB promoter ([5]; L-O2-X cells): inhibits; growth and proliferation of HepG2-X cells in nude mice (HepG2-X cells [6]; 10 mg/kg, P<0.01): inhibits; Anti-tumor rate (%) (HepG2-X cells [6]; HepG2-X tumor, 10 mg/kg once in two day, 10 times): 60.22%; Tumor weight (X ± S, g) (HepG2-X cells [6]; HepG2-X tumor, 10 mg/kg once in two day, 10 times, within 24 hr after last dose): 0.37 ± 0.14 g; Weight (X ± S, g) After dose (HepG2-X cells [6]; mouse body weight after 10 mg/kg once in two day, 10 times, HepG2-X tumor): 21.08 ± 0.74 g; Weight (X ± S, g) Before dose (HepG2-X cells [6]; mouse body weight before dose, HepG2-X tumor, experimental group): 15.75 ± 0.99 g; growth of the hepatoma cells (MTT assay) (L-O2): no effect
